According to patent US10711007B2, “Selective inhibitors of protein arginine methyltransferase 5 (PRMT5)” (Prelude Therapeutics, Incorporated, priority 2018, dated 2020):

System: sDMA marks (SmD3me2s) in U-87 MG cells
Test: Western blotting for symmetric di-methyl arginine (sDMA) marks in U-87 MG cells
Format: cell-based
Conditions: Homo sapiens, 72 h; U-87 MG cell line, 3 days
Method: Cell Treatment and Western Blotting for Detecting Symmetric Di-Methyl Arginine (sDMA) Marks
Compound Titration and Cell Culture:
Compounds were dissolved in DMSO to make 10 mM stock and 3-fold series dilutions were further conducted to make working stocks top at 1 mM. Granta-519 cells were maintained in PRMI 1640 (Corning Cellgro, Catalog #: 10-040-CV) supplemented with 10% v/v FBS (GE Healthcare, Catalog #: SH30910.03) and U-87 MG cells were maintained in DMEM (Corning Cellgro, Catalog #: 10-013-CV) with 10% FBS and 2 mM Glutamin (Corning Cellgro, Catalog #25005CV).
To determine enzyme inhibition IC50 values in Granta-519 and U-87 MG cells using Western Blot analysis. One day before experiment, Granta-519 cells were passaged to a density of 0.5×10^6 cells/ml. U-87 MG cells were trypsinized and 4×10^5 cells were seeded into 6-well plates and allow to grow overnight. The next day, Granta-519 cells were spun down at 1,500 rpm for 4 min, resuspend in fresh medium at 0.5×10^6 cells/ml and 3 mL of culture (1.5×10^6 cells) were seeded into 6 well plate. Eight-point, 3-fold serial dilutions of compound working stocks were added to cells (3 ul, 1:1,000 dilution, DMSO concentration was 0.1%; final top concentration at 1 uM) and incubated for 3 days. Cells incubated with DMSO was used as a vehicle control.
Cells were harvested 3 days later, resuspended in 15 uL PBS, lysed in 4% SDS, and homogenized by passing through homogenizer column (Omega Biotek, Catalog #: HCR003). Total protein concentrations were determined by BCA assay (ThermoFisher Scientific, Catalog #: 23225). Lysates were mixed with 5× Laemmli buffer and boiled for 5 min. Forty ug of total protein was separated on SDS-PAGE gels (Bio-Rad, catalog #: 4568083, 4568043), transferred to PVDF membrane, blocked with 5% dry milk (Bio-Rad, Catalog #: 1706404) in TBS with 0.1% v/v Tween 20 (TBST) for 1 hour at room temperature (RT), and incubated with primary antibodies (sDMA: Cell signaling, Catalog #: 13222, 1:3,000; β-Actin: sigma, Catalog #: 1:5,000) in 5% dry milk in TBST at 4° C. overnight. The next day, membranes were washed with TBST, 5×5 min, and incubated with HRP conjugated seconded antibody (GE Healthcare; Catalog #: NA934-1ML, NA931-1ML; 1:5,000) for 2 hours at RT, followed by 5×5 min washes with TBST, and incubation with ECL substrates (Bio-Rad, Catalog #: 1705061, 1705062). Chemiluminescent signal was captured with Fluochem HD2 imager (Proteinsimple). SmD3me2s bands were quantified by ImageJ. Signals were normalized to β-Actin and DMSO control. IC50 values were calculated using Graphpad Prism ([Inhibitor] vs. normalized response-Variable slope).

IC50: 25 nM
SMILES: Nc1ncnc2c1ccn2[C@@H]1O[C@H]([C@@H]2OCc3ccc(Cl)cc32)[C@@H](O)[C@H]1O [Example 5, (2R,3R,4S,5S)-2-(4-amino-7H-pyrrolo[2,3-d]pyrimidin-7-yl)-5-((R)-6-chloro-1,3-dihydroisobenzofuran-1-yl)tetrahydrofuran-3,4-diol]
